Consider 20 compounds from patent US12398154B2, “Azaquinazoline pan-KRas inhibitors” (Mirati Therapeutics, Inc., priority 2020, dated 2025).

Some targets named below: KRas G12D (Homo sapiens, UniProt P01116, G12D); KRas G12V (Homo sapiens, UniProt P01116, G12V); KRas G12R (Homo sapiens, UniProt P01116, G12R); KRas G12C (Homo sapiens, UniProt P01116, G12C); KRas WT (Homo sapiens, UniProt P01116).
Holding throughout (experiment): biochemical

Chain of KRas G12V (P01116 1-169 isoform P01116-2 G12V): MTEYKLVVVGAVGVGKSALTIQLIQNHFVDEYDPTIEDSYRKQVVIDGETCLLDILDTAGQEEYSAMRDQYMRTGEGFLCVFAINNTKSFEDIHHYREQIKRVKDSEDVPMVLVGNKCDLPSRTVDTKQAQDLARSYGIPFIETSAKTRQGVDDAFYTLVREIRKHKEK
Chain of KRas G12C (P01116 1-169 isoform P01116-2 G12C): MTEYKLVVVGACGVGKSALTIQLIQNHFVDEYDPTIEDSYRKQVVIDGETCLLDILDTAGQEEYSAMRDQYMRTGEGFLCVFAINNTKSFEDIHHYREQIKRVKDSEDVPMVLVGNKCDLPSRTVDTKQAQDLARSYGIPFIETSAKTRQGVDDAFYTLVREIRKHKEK
Chain of KRas G12R (P01116 1-169 isoform P01116-2 G12R): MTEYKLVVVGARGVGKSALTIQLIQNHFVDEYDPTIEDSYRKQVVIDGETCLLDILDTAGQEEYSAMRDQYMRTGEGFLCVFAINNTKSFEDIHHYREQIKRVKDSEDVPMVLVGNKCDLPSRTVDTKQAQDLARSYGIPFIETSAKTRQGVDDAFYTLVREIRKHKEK
Chain of KRas G12D (P01116 1-169 isoform P01116-2 G12D): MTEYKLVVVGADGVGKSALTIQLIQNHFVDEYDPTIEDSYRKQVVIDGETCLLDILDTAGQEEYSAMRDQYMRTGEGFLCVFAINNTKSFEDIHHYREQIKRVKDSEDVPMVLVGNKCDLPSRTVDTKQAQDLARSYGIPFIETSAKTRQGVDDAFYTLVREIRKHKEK
Chain of KRas WT (P01116 1-169 isoform P01116-2): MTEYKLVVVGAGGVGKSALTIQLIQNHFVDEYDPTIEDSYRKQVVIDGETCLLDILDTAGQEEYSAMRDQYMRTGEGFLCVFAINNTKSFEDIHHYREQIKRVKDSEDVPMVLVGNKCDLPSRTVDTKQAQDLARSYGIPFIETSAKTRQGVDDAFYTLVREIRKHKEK

Usually IC50 stands for the concentration needed to halve the response being measured. Low values mean inhibition by little substance, high ones a need for much substance. For the compound `CC1CCCN(c2nc(OCC34CCCN3CCC4)nc3c(F)c(-c4cccc5cccc(F)c45)ncc23)C1` (stereo not shown) [Example 22, 8-fluoro-7-(8-fluoronaphthalen-1-yl)-2-((hexahydro-1H-pyrrolizin-7a-yl)methoxy)-4-(3-methylpiperidin-1-yl)pyrido[4,3-d]pyrimidine], the IC50 was determined as 9.97 µM on KRas G12D, 12.1 µM against KRas G12V, 14.9 µM at KRas G12R and 62.1 µM on KRas G12C.
The corresponding values for `OC1CCCN(c2nc(OCC34CCCN3CCC4)nc3c(F)c(-c4cccc5cccc(F)c45)ncc23)C1` (stereo not shown) [Example 23, 1-(8-fluoro-7-(8-fluoronaphthalen-1-yl)-2-((hexahydro-1H-pyrrolizin-7a-yl)methoxy)pyrido[4,3-d]pyrimidin-4-yl)piperidin-3-ol] are 5.27 µM, 4.3 µM, 6.18 µM and 4.74 µM.
The corresponding values for `C#Cc1cccc2cccc(-c3ncc4c(N5CCCC(C)(O)C5)nc(OCC56CCCN5CCC6)nc4c3F)c12` (stereo not shown) [Example 55] are 0.139 µM, 0.212 µM, 0.41 µM and 0.295 µM.
As to `CC1(O)CCCCN(c2nc(OCC34CCCN3CCC4)nc3c(F)c(-c4cccc5cccc(F)c45)ncc23)C1` (stereo not shown) [Example 65, 1-(8-fluoro-7-(8-fluoronaphthalen-1-yl)-2-((hexahydro-1H-pyrrolizin-7a-yl)methoxy)pyrido[4,3-d]pyrimidin-4-yl)-3-methylazepan-3-ol], the IC50 against KRas G12D was 14.1 µM; on KRas G12V it was 15 µM; on KRas G12R, 45.1 µM; against KRas G12C, 21 µM.
Taken in the same sequence, the figures for `CC1(O)CCCN(c2nc(OCC34CCCN3CCC4)nc3c(F)c(-c4cccc5sc(N)nc45)ncc23)C1` (stereo not shown) [Example 67, 1-(7-(2-aminobenzo[d]thiazol-4-yl)-8-fluoro-2-((hexahydro-1H-pyrrolizin-7a-yl)methoxy)pyrido[4,3-d]pyrimidin-4-yl)-3-methylpiperidin-3-ol] were 10.4 µM, 11.5 µM, 16.1 µM and 14.2 µM.
Consider `Fc1c(-c2cccc3cccc(F)c23)ncc2c(N3CC(n4ccnc4)C3)nc(OCC34CCCN3CCC4)nc12` [Example 75, 4-(3-(1H-imidazol-1-yl)azetidin-1-yl)-8-fluoro-7-(8-fluoronaphthalen-1-yl)-2-((hexahydro-1H-pyrrolizin-7a-yl)methoxy)pyrido[4,3-d]pyrimidine], for which the IC50 against KRas G12D turned out to be 63.1 µM; against KRas G12V, 2.39 µM; on KRas G12R, 0.977 µM; against KRas G12C, 1.83 µM.
Regarding `Fc1c(-c2cccc3cccc(F)c23)ncc2c(N3CCCC4(CSC4)C3)nc(OCC34CCCN3CCC4)nc12` [Example 262, 6-(8-fluoro-7-(8-fluoronaphthalen-1-yl)-2-((hexahydro-1H-pyrrolizin-7a-yl)methoxy)pyrido[4,3-d]pyrimidin-4-yl)-2-thia-6-azaspiro[3.5]nonane], the IC50 at KRas G12D turned out to be 0.96 µM; on KRas G12V, 1.79 µM; against KRas G12R, 1.66 µM; on KRas WT, 1.53 µM.
Taken in the same sequence, the figures for `CS(=O)(=O)C1COCCN(c2nc(OCC34CCCN3CCC4)nc3c(F)c(-c4cccc5cccc(F)c45)ncc23)C1` (stereo not shown) [Example 271, 4-(8-fluoro-7-(8-fluoronaphthalen-1-yl)-2-((hexahydro-1H-pyrrolizin-7a-yl)methoxy)pyrido[4,3-d]pyrimidin-4-yl)-6-(methylsulfonyl)-1,4-oxazepane] were 2.43 µM, 2.44 µM, 7.69 µM and 3 µM.
`NC(=O)[C@H]1CCCN(c2nc(OCC34CCCN3CCC4)nc3c(F)c(-c4cccc5cccc(F)c45)ncc23)C1` [Example 273, (S)-1-(8-fluoro-7-(8-fluoronaphthalen-1-yl)-2-((hexahydro-1H-pyrrolizin-7a-yl)methoxy)pyrido[4,3-d]pyrimidin-4-yl)piperidine-3-carboxamide]: the IC50 is 5.15 µM at KRas G12D, 2.31 µM against KRas G12V, 5.2 µM against KRas G12R and 3.07 µM on KRas WT.
As for `CN(C)C(=O)n1cc2c(n1)CCCN(c1nc(OCC34CCCN3CCC4)nc3c(F)c(-c4cccc5cccc(F)c45)ncc13)C2` [Example 274, 5-(8-fluoro-7-(8-fluoronaphthalen-1-yl)-2-((hexahydro-1H-pyrrolizin-7a-yl)methoxy)pyrido[4,3-d]pyrimidin-4-yl)-N,N-dimethyl-5,6,7,8-tetrahydropyrazolo[4,3-c]azepine-2(4H)-carboxamide], the IC50 on KRas G12D amounted to 0.375 µM; against KRas G12V, 0.867 µM; against KRas G12R, 2.76 µM; against KRas WT it was 14.7 µM.
The corresponding values for `CC(=O)Nc1cc2n(n1)CCCN(c1nc(OCC34CCCN3CCC4)nc3c(F)c(-c4cccc5cccc(F)c45)ncc13)C2` [Example 275, N-(5-(8-fluoro-7-(8-fluoronaphthalen-1-yl)-2-((hexahydro-1H-pyrrolizin-7a-yl)methoxy)pyrido[4,3-d]pyrimidin-4-yl)-5,6,7,8-tetrahydro-4H-pyrazolo[1,5-a][1,4]diazepin-2-yl)acetamide] are 1.66 µM, 9.05 µM, 7.16 µM and 24.3 µM.
For `O=C(c1cc2n(n1)CCCN(c1nc(OCC34CCCN3CCC4)nc3c(F)c(-c4cccc5cccc(F)c45)ncc13)C2)N1CCOCC1` [Example 276, (5-(8-fluoro-7-(8-fluoronaphthalen-1-yl)-2-((hexahydro-1H-pyrrolizin-7a-yl)methoxy)pyrido[4,3-d]pyrimidin-4-yl)-5,6,7,8-tetrahydro-4H-pyrazolo[1,5-a][1,4]diazepin-2-yl)(morpholino)methanone], the IC50 worked out at 0.212 µM at KRas G12D, 0.303 µM against KRas G12V, 1.21 µM on KRas G12R and 3.22 µM on KRas WT.
Taken in the same sequence, the figures for `O=C(c1cc2n(n1)CCCN(c1nc(OCC34CCCN3CCC4)nc3c(F)c(-c4cccc5cccc(F)c45)ncc13)C2)N1CCC1` [Example 277, azetidin-1-yl(5-(8-fluoro-7-(8-fluoronaphthalen-1-yl)-2-((hexahydro-1H-pyrrolizin-7a-yl)methoxy)pyrido[4,3-d]pyrimidin-4-yl)-5,6,7,8-tetrahydro-4H-pyrazolo[1,5-a][1,4]diazepin-2-yl)methanone] were 0.765 µM, 1.8 µM, 4.91 µM and 5.29 µM.
As to `O=C1CC2CCN(c3nc(OCC45CCCN4CCC5)nc4c(F)c(-c5cccc6cccc(F)c56)ncc34)CC2C(=O)N1` (stereo not shown) [Example 335, 7-(8-fluoro-7-(8-fluoronaphthalen-1-yl)-2-((hexahydro-1H-pyrrolizin-7a-yl)methoxy)pyrido[4,3-d]pyrimidin-4-yl)hexahydro-2,7-naphthyridine-1,3(2H,4H)-dione], the IC50 was 7.83 µM on KRas G12D, ≥ 100 µM on KRas G12V and 84.5 µM against KRas G12R.
Turning to `CCc1c(F)ccc2cc(O)cc(-c3ncc4c(NCCC5CCNC5=O)nc(OC[C@@]56CCCN5C[C@H](F)C6)nc4c3F)c12` (stereo partly drawn) [Example 375, 3-(2-((7-(8-ethyl-7-fluoro-3-hydroxynaphthalen-1-yl)-8-fluoro-2-(((2R,7aS)-2-fluorohexahydro-1H-pyrrolizin-7a-yl)methoxy)pyrido[4,3-d]pyrimidin-4-yl)amino)ethyl)pyrrolidin-2-one], the IC50 on KRas G12D worked out at 0.044 µM; against KRas G12V, 0.008 µM; against KRas G12R it was 0.009 µM.
The corresponding values for `CC1(O)CCCN(c2nc(OCC34CCCN3CCC4)nc3c(F)c(-c4cc(O)ccc4F)ncc23)C1` (stereo not shown) [Example 429, 1-(8-fluoro-7-(2-fluoro-5-hydroxyphenyl)-2-((tetrahydro-1H-pyrrolizin-7a(5H)-yl)methoxy)pyrido[4,3-d]pyrimidin-4-yl)-3-methylpiperidin-3-ol] are 2.46 µM, 4.44 µM and 8.25 µM.
Taken in the same sequence, the figures for `O=C1CC2(CCCN(c3nc(OCC45CCCN4CCC5)nc4c(F)c(-c5cccc6cccc(CO)c56)ncc34)C2)N1` (stereo not shown) [Example 433, 6-(8-fluoro-2-((hexahydro-1H-pyrrolizin-7a-yl)methoxy)-7-(8-(hydroxymethyl)naphthalen-1-yl)pyrido[4,3-d]pyrimidin-4-yl)-1,6-diazaspiro[3.5]nonan-2-one] were 8.78 µM, 10 µM and 15.4 µM.
Taken in the same sequence, the figures for `N#Cc1cccc2cccc(-c3ncc4c(N5CCCC(c6nc[nH]n6)C5)nc(OCC56CCCN5CCC6)nc4c3F)c12` (stereo not shown) [Example 456, 8-(4-(3-(1H-1,2,4-triazol-3-yl)piperidin-1-yl)-8-fluoro-2-((hexahydro-1H-pyrrolizin-7a-yl)methoxy)pyrido[4,3-d]pyrimidin-7-yl)-1-naphthonitrile] were 48.8 µM, 10.7 µM and 6.37 µM.
As for `NS(=O)(=O)CC1CCCN(c2nc(OCC34CCCN3CCC4)nc3c(F)c(-c4cccc5cccc(C(F)(F)F)c45)ncc23)C1` (stereo not shown) [Example 465, 1-(1-(8-fluoro-2-((hexahydro-1H-pyrrolizin-7a-yl)methoxy)-7-(8-(trifluoromethyl)naphthalen-1-yl)pyrido[4,3-d]pyrimidin-4-yl)piperidin-3-yl)methanesulfonamide], the IC50 against KRas G12D was 15.6 µM; against KRas G12V, 6.1 µM; at KRas G12R, 10.1 µM.
The corresponding values for `CCc1c(F)ccc2cc(O)cc(-c3ncc4c(N5CCN6C(C5)C(=O)NC6(C)C)nc(OC[C@@]56CCCN5C[C@H](F)C6)nc4c3F)c12` (stereo partly drawn) [Example 489, 7-(7-(8-ethyl-7-fluoro-3-hydroxynaphthalen-1-yl)-8-fluoro-2-(((2R,7aS)-2-fluorohexahydro-1H-pyrrolizin-7a-yl)methoxy)pyrido[4,3-d]pyrimidin-4-yl)-3,3-dimethylhexahydroimidazo[1,5-a]pyrazin-1(5H)-one] are 0.221 µM, 0.151 µM and 0.31 µM.
